From patent publication US11649228B2, “Zinc indicators for cellular imaging” (The Board of Regents of the University of Texas System, priority 2018, dated 2023)

Key:
[1] = test system: MIN-6 β cells; assay: Confocal imaging of ZIGIR-labeled live β cells; assay type: cell-based, mouse
Procedure: To assess ZIGIRs' ability for imaging granular Zn^2+ in living cells, an insulin secreting β cell (MIN-6 cell) was labeled with ZIGIRs. After dye loading (0.5 μM for 15 min) and washing, cells were imaged by confocal laser scanning microscopy (CLSM). […] After raising cellular Zn^2+ level by adding a Zn^2+ ionophore (pyrithione, 10 μM) and Zn^2+ (20 μM), a drastic enhancement of ZIGIR-2 signal was observed. […] Subsequent washout of zinc/pyrithione and addition of a Zn^2+ chelator TPEN depleted cellular Zn^2+ activity and dampened ZIGIR-2 intensity to nearly the background level (FIGS. 6D & 6E). Overall ZIGIR-2 intensity increased about 12-fold going from the low Zn^2+ (TPEN) to the high Zn^2+ state (Zn^2+/pyrithione), with a cell-to-cell variation of 12.04±4.8 fold (mean±SD, N=20 cells).
MIN-6 β cells were cultured as previously described (Li et al., 2011). HEK293 cells were cultured in DMEM medium supplemented with 10% FBS and 1% Penicillin/Streptomycin. T47D cells were cultured in RPMI-1640 medium supplemented with 10% FBS, 0.5% non-essential amino acids, 1 mM sodium pyruvate, 10 μg/mL geneticin and 0.01 mg/mL insulin. H1299 cells were cultured in RPMI-1640 medium supplemented with 10% FBS. All cells were maintained at 37° C. with 5% CO2. For cell imaging, cells were seeded in 35-mm petri dishes with glass bottoms (MatTek) and cultured for ˜24 hours to reach ˜50% confluence. Prior to labeling, cells were washed with a secretion assay buffer (SAB) containing 114 mM NaCl, 4.7 mM KCl, 1.2 mM KH2PO4, 2.5 mM CaCl2, 1.16 mM MgSO4, 3 mM glucose, and 20 mM Hepes (pH 7.4). Cells were then incubated with ZIGIRs (0.5-1 μM) in SAB at 37° C. for 15 min, and washed with SAB before imaging on a Zeiss LSM 780 confocal microscope using 561 nm laser for exciting ZIGIR-2 (Em 570-650 nm) and 514 nm laser for exciting ZIGIR-1 (Em 516-650 nm). LysoTracker Green (ThermoFisher Scientific) was used at 0.4 μM to label acidic organelles and was added to cells <5 min before imaging. […] ZIGIR colocalization with LysoTracker Green was analyzed and quantified with JACoP plugin of ImageJ.

[2] = Photochemical characterization of ZIGIRs in vitro (absorption, emission, quantum yield); assay type: physicochemical; details: for ε (extinction coefficient): in M-1·cm-1 (unit assumed); for ϕfl × ε (fluorescence brightness): in M^-1 cm^-1 (unit assumed)
Procedure: UV-Vis spectra were recorded in a 1-cm path quartz cell on a Shimadzu 2401 PC spectrometer. Fluorescence excitation and emission spectra were recorded on a Fluorolog 3 spectrometer (Jobin-Yvon Horiba, Edison, N.J.). Zinc titration was performed by adding ZIGIRs (0.5 μM final concentration) to buffered Zn^2+ solutions containing 100 mM HEPES (pH 7.4). Nitrilotriacetic acid (NTA, 10 mM) and varying concentrations of ZnSO4 (0-9 mM) were mixed to reach free Zn^2+ concentrations between 0.1 nM and 40 nM (Li et al., 2011). Zn^2+ concentrations above 40 nM were controlled by iminodiacetate (IDA, 10 mM) and varying amounts of ZnSO4 (0-9.7 mM) in 100 mM HEPES (pH 7.4; Sasaki et al., 2011). To determine Zn^2+ binding dissociation constants (Kd(Zn^2+)), the Zn^2+ titration data were fitted to the least square exponential equation (Prism 7). Fluorescence quantum yields of ZIGIRs at pH 7.5 were determined using rhodamine 6G as the reference (Φfl=0.94 in MeOH; Magde et al., 2002). An example in shown FIGS. 11A0B. To examine the pH sensitivity of ZIGIRs, the fluorescence emission spectra was recorded from pH 3-9.4 in either nominally Zn^2+-free solutions containing 5 mM iminodiacetate or in 25 μM ZnSO4 solutions. The pH was controlled with 10 mM pH buffers including chloroacetic acid (pH 3.1), acetate (pH 4.1 and 5.0), 2-morpholinoethanesulfonic acid (MES, pH 6.14), HEPES (pH 7.5) and N-cyclohexyl-2-aminoethanesulfonic acid (CHES, pH 9.4).

CN(C)c1ccc2c(-c3ccc(NCCN(CCc4ccccn4)Cc4ccccn4)cc3C(=O)[O-])c3ccc(=[N+](C)C)cc-3oc2c1 [ZIGIR-2]
stability of intensity of labeled granules on repetitive imaging ([1]; MIN6 cells, imaged every 5 sec over ~30 min): remains stable
increase of intensity from low Zn^2+ (TPEN) to high Zn^2+ state (Zn^2+/pyrithione) ([1]; MIN-6 cells, overall): about 12 fold
increase of intensity from TPEN to Zn^2+/pyrithione, cell-to-cell variation ([1]; mean±SD, N=20 cells): 12.04±4.8 fold
absorption maximum [2]: around 555 nm
emission maximum [2]: ~580 nm
λabd^max ([2]; Zn^2+ bound): 549 nm
λem^max ([2]; Zn^2+ bound): 580 nm
ϕfl (fluorescence quantum yield) ([2]; Zn^2+ bound): 0.26
ε (extinction coefficient) ([2]; Zn^2+ bound): 93,600
ϕfl × ε (fluorescence brightness) ([2]; Zn^2+ bound): 24,336
λabd^max ([2]; Zn^2+ free): 546 nm
λem^max ([2]; Zn^2+ free): 572 nm
ϕfl (fluorescence quantum yield) ([2]; Zn^2+ free): 0.008
ε (extinction coefficient) ([2]; Zn^2+ free): 88,400
ϕfl × ε (fluorescence brightness) ([2]; Zn^2+ free): 707
